Experimental data taken from patent US5603917A, “Methods for the in vivo measurement of the concentration of NMR-detectable xenobiotic compounds” (Bracco International B. V., priority 1994, dated 1997).
Where “and” joins values, the source holds several entries; their conditions need not be identical. Equal entries are not always repeated.

Assays:
[1] = In vivo proton T1 measurement at rat tail, elimination of ProHance® (kidney status); settings: intravenous 0.5 mmol/kg ProHance®, 20 MHz, 0.5 Tesla, 40° C.
Protocol: The measurement site was the tail of the subject rat, which was hung into the sample tube of a Brucker/IBM PC 20 Spin Analyzer (commerically available).
Rat proton T1 data were recorded both before and after intravenous injection of 0.5 mmol/kg ProHance®. The T1 measurements were made by the inversion-recovery method (Fukushima et al., Experimental Pulse NMR, a Nuts and Bolts Approach (Addison-Wesley 1981)) at 20 MHz and 0.5 Tesla at 40° C. with the IBM PC 20 relaxometer by sampling the section of the rat tail about 10 mm from the tip. The proton T1 change upon the injection of ProHance® was followed for 2 hours at 5 minute intervals after injection. The logarithms of the differences in the T1 relaxation rate (reciprocal of T1 relaxation time) before and after injection, log(1/T1 -1/T10), were plotted as a function of time. The elimination halftimes (T1/2) were calculated from the slopes of the log plots. The proton T1 data of a nephrectomized rat were also collected and used for comparison with the behaviour of normal rats (see FIG. 1).
(§1) Runs involving simultaneous intravenous injection administrations of 0.5 mmol/kg ProHance®, ^153 Gd-labeled ProHance® and ^99m Tc(DTPA) (Techneplex™, technetium-diethylenetriamine pentaacetic acid), the latter to determine glomerular filtration rate by in vitro methods as a validation experiment, were also carried out. In these runs, rat blood samples and tail T1 data were acquired at the same time intervals from the same rat, and with multiple subjects (n=3). The blood samples were assayed in vitro to determine the amounts of ^153 Gd-labeled ProHance® and ^99m Tc(DTPA) in the blood, and the percentage changes in the blood pool concentrations of ^153 Gd-labeled ProHance® and ^99m Tc(DTPA) were plotted as a function of time to obtain the T1/2 values. The T1/2 data were also calculated from the slopes of the log(1/T1 -1/T10) versus time plots. These two sets of rat T1/2 data are shown in Table 1, and are also compared in FIG. 2.

[2] = Blood sampling with in vitro assay of ^153 Gd-labeled ProHance® and ^99m Tc(DTPA), elimination from rat blood pool (validation experiment); format: in vivo; settings: rats #5 to #7; blood samples; simultaneous intravenous injection; same values obtained for ^153 Gd and ^99m Tc
Protocol: as §1

[3] = normal rats #1 to #7, one value per rat, 2 hours at 5 minute intervals

| Compound | Elimination Halftime T1/2 From Slope ([1]; nephrectomized rat) | Slope of Log (1/T1 - 1/T10) vs Time Plot ([1]; nephrectomized rat) | Elimination Halftime T1/2 From Slope [1, 3] | Slope of Log (1/T1 - 1/T10) vs Time Plot [1, 3] | Elimination Halftime T1/2 From ^153 Gd and ^99m Tc [2] [min] |
| --- | --- | --- | --- | --- | --- |
| CC(O)CN1CCN(CC(=O)[O-])CCN(CC(=O)[O-])CCN(CC(=O)[O-])CC1.[Gd+3] (stereo not drawn) [ProHance®, Gd-hydroxypropyl tetraazacylododecanetriacetic acid] | 2,000 ± 4,000 min. | 0.0003 ± 0.0006 | 35 ± 5 min and 32 ± 2 min and 25 ± 4 min and 30 ± 3 min and 36 ± 2 min and 20 ± 2 min | 0.0093 ± 0.0006 and 0.012 ± 0.0020 and 0.010 ± 0.0012 and 0.0083 ± 0.0005 and 0.015 ± 0.0016 and 0.0087 ± 0.0012 |  |
| CC(O)CN1CCN(CC(=O)[O-])CCN(CC(=O)[O-])CCN(CC(=O)[O-])CC1.[Gd+3] (stereo not drawn) [^153 Gd-labeled ProHance®] |  |  |  |  | 31 |
| technetium-diethylenetriamine pentaacetic acid [^99m Tc(DTPA)] |  |  |  |  | 31 |
